# Reference: PubChem BioAssay (NCI)
#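 The compound was tested at five concentrations on cells cultured in 96-well plates, with a 48-hour exposure period. At the GI50, growth is halved. Definition used: TGI = concentration required for complete inhibition of growth.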
# Legend:
# Assay in all cases: NCI anticancer screen, dose series, 48 h
# SW-620 colon = tested on: SW-620 colon
# OVCAR-5 ovarian = tested on: OVCAR-5 ovarian
# ACHN renal = tested on: ACHN renal
# K-562 leukemia = tested on: K-562 leukemia
# UACC-257 melanoma = tested on: UACC-257 melanoma
# SN12C renal = tested on: SN12C renal
# EKVX NSCLC = tested on: EKVX NSCLC
# UACC-62 melanoma = tested on: UACC-62 melanoma
# NCI-H23 lung = tested on: NCI-H23 lung
# LOX IMVI melanoma = tested on: LOX IMVI melanoma
# KM12 colon = tested on: KM12 colon
# MDA-MB-435 = tested on: MDA-MB-435
# SNB-75 CNS = tested on: SNB-75 CNS
# A498 renal = tested on: A498 renal
# DU-145 prostate = tested on: DU-145 prostate
# BT-549 breast = tested on: BT-549 breast
# T-47D breast = tested on: T-47D breast
# OVCAR-4 ovarian = tested on: OVCAR-4 ovarian
# SK-OV-3 ovarian = tested on: SK-OV-3 ovarian
# SR leukemia = tested on: SR leukemia
# MCF7 breast = tested on: MCF7 breast
# M14 melanoma = tested on: M14 melanoma
# RPMI-8226 leukemia = tested on: RPMI-8226 leukemia
# OVCAR-8 ovarian = tested on: OVCAR-8 ovarian
# HOP-92 NSCLC = tested on: HOP-92 NSCLC
# NCI/ADR-RES ovarian = tested on: NCI/ADR-RES ovarian
# SK-MEL-2 melanoma = tested on: SK-MEL-2 melanoma
# SF-295 CNS = tested on: SF-295 CNS
# SF-268 CNS = tested on: SF-268 CNS
# HCT-116 colon = tested on: HCT-116 colon
# IGROV1 ovarian = tested on: IGROV1 ovarian
# A549 NSCLC = tested on: A549 NSCLC
# CAKI-1 renal = tested on: CAKI-1 renal
# U251 CNS = tested on: U251 CNS
# NCI-H226 lung = tested on: NCI-H226 lung
# HT29 colon = tested on: HT29 colon
# TK-10 renal = tested on: TK-10 renal
# UO-31 renal = tested on: UO-31 renal
# HCC-2998 colon = tested on: HCC-2998 colon
# MOLT-4 leukemia = tested on: MOLT-4 leukemia
# HL-60(TB) leukemia = tested on: HL-60(TB) leukemia
# CCRF-CEM leukemia = tested on: CCRF-CEM leukemia
# SNB-19 CNS = tested on: SNB-19 CNS
# SK-MEL-28 melanoma = tested on: SK-MEL-28 melanoma
# HOP-62 NSCLC = tested on: HOP-62 NSCLC
# MDA-MB-231 breast = tested on: MDA-MB-231 breast
# PC-3 prostate = tested on: PC-3 prostate
# HCT-15 colon = tested on: HCT-15 colon
# SK-MEL-5 melanoma = tested on: SK-MEL-5 melanoma
# SF-539 CNS = tested on: SF-539 CNS
# NCI-H522 lung = tested on: NCI-H522 lung
# 786-0 renal = tested on: 786-0 renal
# MALME-3M melanoma = tested on: MALME-3M melanoma
# RXF 393 renal = tested on: RXF 393 renal
# HS 578T breast = tested on: HS 578T breast
# NCI-H460 lung = tested on: NCI-H460 lung
compound,measurement,setting,value
COc1ccc2c(c1)C=CC1(O2)Oc2ccc(OC)cc2C=C1C (stereo not given),GI50,SW-620 colon,380 nM
same,TGI,SW-620 colon,16700 nM
same,GI50,OVCAR-5 ovarian,1760 nM
same,TGI,OVCAR-5 ovarian,> 100000 nM
same,GI50,ACHN renal,673 nM
same,TGI,ACHN renal,> 54500 nM
same,GI50,K-562 leukemia,358 nM
same,TGI,K-562 leukemia,> 100000 nM
same,GI50,UACC-257 melanoma,820 nM
same,TGI,UACC-257 melanoma,> 48900 nM
same,GI50,SN12C renal,800 nM
same,TGI,SN12C renal,> 55900 nM
same,GI50,EKVX NSCLC,1820 nM
same,TGI,EKVX NSCLC,> 100000 nM
same,GI50,UACC-62 melanoma,390 nM
same,TGI,UACC-62 melanoma,> 32900 nM
same,GI50,NCI-H23 lung,1370 nM
same,TGI,NCI-H23 lung,> 100000 nM
same,GI50,LOX IMVI melanoma,647 nM
same,TGI,LOX IMVI melanoma,8520 nM
same,GI50,KM12 colon,506 nM
same,TGI,KM12 colon,> 100000 nM
same,GI50,MDA-MB-435,222 nM
same,TGI,MDA-MB-435,545 nM
same,GI50,SNB-75 CNS,273 nM
same,TGI,SNB-75 CNS,> 100000 nM
same,GI50,A498 renal,251 nM
same,TGI,A498 renal,1060 nM
same,GI50,DU-145 prostate,1130 nM
same,TGI,DU-145 prostate,> 100000 nM
same,GI50,BT-549 breast,332 nM
same,TGI,BT-549 breast,1690 nM
same,GI50,T-47D breast,2030 nM
same,TGI,T-47D breast,> 65200 nM
same,GI50,OVCAR-4 ovarian,28800 nM
same,TGI,OVCAR-4 ovarian,> 100000 nM
same,GI50,SK-OV-3 ovarian,538 nM
same,TGI,SK-OV-3 ovarian,> 100000 nM
same,GI50,SR leukemia,335 nM
same,TGI,SR leukemia,22700 nM
same,GI50,MCF7 breast,652 nM
same,TGI,MCF7 breast,> 100000 nM
same,GI50,M14 melanoma,402 nM
same,GI50,RPMI-8226 leukemia,475 nM
same,TGI,RPMI-8226 leukemia,> 25400 nM
same,GI50,OVCAR-8 ovarian,944 nM
same,TGI,OVCAR-8 ovarian,4560 nM
same,GI50,HOP-92 NSCLC,189 nM
same,TGI,HOP-92 NSCLC,930 nM
same,GI50,NCI/ADR-RES ovarian,397 nM
same,TGI,NCI/ADR-RES ovarian,> 100000 nM
same,GI50,SK-MEL-2 melanoma,392 nM
same,TGI,SK-MEL-2 melanoma,54000 nM
same,GI50,SF-295 CNS,384 nM
same,TGI,SF-295 CNS,> 100000 nM
same,GI50,SF-268 CNS,1810 nM
same,TGI,SF-268 CNS,> 100000 nM
same,GI50,HCT-116 colon,509 nM
same,TGI,HCT-116 colon,> 24200 nM
same,GI50,IGROV1 ovarian,704 nM
same,TGI,IGROV1 ovarian,> 100000 nM
same,GI50,A549 NSCLC,1000 nM
same,TGI,A549 NSCLC,> 100000 nM
same,GI50,CAKI-1 renal,632 nM
same,TGI,CAKI-1 renal,> 100000 nM
same,GI50,U251 CNS,456 nM
same,TGI,U251 CNS,7860 nM
same,GI50,NCI-H226 lung,4410 nM
same,TGI,NCI-H226 lung,> 65600 nM
same,GI50,HT29 colon,345 nM
same,TGI,HT29 colon,1620 nM
same,GI50,TK-10 renal,7810 nM
same,TGI,TK-10 renal,> 100000 nM
same,GI50,UO-31 renal,1310 nM
same,TGI,UO-31 renal,> 46900 nM
same,GI50,HCC-2998 colon,1350 nM
same,TGI,HCC-2998 colon,7360 nM
same,GI50,MOLT-4 leukemia,447 nM
same,TGI,MOLT-4 leukemia,> 71600 nM
same,GI50,HL-60(TB) leukemia,288 nM
same,GI50,CCRF-CEM leukemia,366 nM
same,TGI,CCRF-CEM leukemia,4080 nM
same,GI50,SNB-19 CNS,598 nM
same,TGI,SNB-19 CNS,> 100000 nM
same,GI50,SK-MEL-28 melanoma,4800 nM
same,TGI,SK-MEL-28 melanoma,> 81900 nM
same,GI50,HOP-62 NSCLC,615 nM
same,TGI,HOP-62 NSCLC,> 59200 nM
same,GI50,MDA-MB-231 breast,1160 nM
same,TGI,MDA-MB-231 breast,> 100000 nM
same,GI50,PC-3 prostate,461 nM
same,TGI,PC-3 prostate,> 41900 nM
same,GI50,HCT-15 colon,453 nM
same,TGI,HCT-15 colon,31400 nM
same,GI50,SK-MEL-5 melanoma,695 nM
same,TGI,SK-MEL-5 melanoma,13500 nM
same,GI50,SF-539 CNS,396 nM
same,TGI,SF-539 CNS,3020 nM
same,GI50,NCI-H522 lung,303 nM
same,TGI,NCI-H522 lung,24100 nM
same,GI50,786-0 renal,742 nM
same,TGI,786-0 renal,> 36200 nM
same,GI50,MALME-3M melanoma,33000 nM
same,TGI,MALME-3M melanoma,> 100000 nM
same,GI50,RXF 393 renal,432 nM
same,TGI,RXF 393 renal,17700 nM
same,GI50,HS 578T breast,348 nM
same,TGI,HS 578T breast,> 100000 nM
same,GI50,NCI-H460 lung,422 nM
same,TGI,NCI-H460 lung,2050 nM
